A melting point compilation (Tetko et al.; mined from patent text by program, amines drawn as free bases though some values may be those of a salt)

Compound | melting point
CC(C)(C)c1ccc(CCCCN2CCC(C3(O)c4ccccc4CCc4ccccc43)CC2)cc1 | 99 to 101 °C
Cn1nc2c(-c3ccc(Cl)cc3Cl)cccc2c1C(=O)c1ncn[nH]1 | 284 to 285 °C
CNC(=O)c1cc(-c2ccc(OC)c(Cl)c2)nn(CC2CC2)c1=O | 172 to 173 °C
CC(=O)N(O)Cc1ccc2c(c1)Cc1ccccc1-2 | 182 to 183 °C
C=CCOC(=O)Nc1ccc(N2CCN(N3C=NN(CC(C)(O)c4ccc(Cl)cc4Cl)C3)CC2)cc1 (stereo unspecified) | 177 to 179 °C
Cc1cc(=O)n(CCCN2CCC(c3c[nH]c4ccccc34)CC2)c2ccccc12 | 74 to 77 °C
O=[N+]([O-])c1ccc(OCc2cscn2)cc1 | 175 to 176 °C
COc1cc2c(cc1Nc1ncc(Cl)c(Nc3ccccc3S(=O)(=O)C(C)C)n1)CCN(CC(=O)N1CCOCC1)CC2 | 100 °C
O=C(Nc1ccc(Oc2ccnc(NC3CC3)n2)c2ccccc12)c1cc(F)cc(N2CCCCC2)c1 | 157 to 158 °C
O=C(Nc1cc(S(=O)(=O)N(CCO)CCO)sc1Cl)c1cnn2c(C(F)(F)F)cc(-c3ccc(C(F)(F)F)cc3)nc12 | 217 °C
Oc1cccc2oc(Cc3cccc(C(F)(F)F)c3)nc12 | 157 to 158 °C
N#CCC(O)(Cn1cncn1)c1ccc(F)cc1F (stereo unspecified) | 154 to 155 °C
CCCNC(=O)C(C#N)=NNc1ccccc1-c1ccccc1 | 180 to 184 °C
COC(=O)C1(NC(C)=O)CCc2cc(OC)ccc2C1 (stereo unspecified) | 153 to 154 °C
Cc1cc(C)cc(S(=O)(=O)c2ccc(N)cc2)c1 | 178 to 179 °C
CC1(C)CCC(=O)N(C2c3cc4nonc4cc3OC(C)(C)C2O)C1 (stereo unspecified) | 136 to 137 °C
Cc1cc(-c2cnn3c(C(F)(F)F)cc(-c4ccc(C)c(C(F)(F)F)c4)nc23)cc(C)n1 | 258 °C
CCNC(=O)Nc1cc(F)cc2c1OCCC21SC(=O)NC1=O (stereo unspecified) | 197 to 199 °C
CCCNc1nc(C#N)c(C#N)nc1CC(C)C | 107 to 110 °C
CC(c1noc(C(F)F)n1)N1C(=O)C2(COc3cc4c(cc32)OCO4)c2c(Cl)cccc21 (stereo unspecified) | 179 to 182 °C
COC(=O)c1sc2c(c1O)CCC2 | 73 to 75 °C
CCCCC[C@H]1CC[C@H](CCCCc2ccc(C#N)cc2)CC1 | 51 °C
O=C(N1CCc2ccc(Cl)c(O)c2CC1)C(F)(F)F | 133 to 134 °C
CNc1cc(N2CCN(C(=O)C3CCN(S(=O)(=O)c4ccc(C(F)(F)F)cc4)CC3)CC2)ncn1 | 237 to 238 °C
O=C(N[C@@H]1C[C@H]1c1ccccc1)c1ccc2cnccc2n1 (relative stereo) | 123 to 124 °C
CCOC(=O)C1=C(C)Nc2nccn2C1C (stereo unspecified) | 185 to 186 °C

Compound | melting point
COc1ccc2c(cc3n2CCCO3)n1 | 92 to 93 °C
COC(=O)/C(=C/c1ccc(OC)c(OC2CCCC2)c1)CC(=O)O | 119 to 121 °C
O=[N+]([O-])c1ccc(Sc2ccccc2)c(CCl)c1 | 58 to 60 °C
COC(=O)CCOc1ccc(C#N)cc1 | 51 °C
CN(Cc1ccc(NC(=O)C2=Cc3cc(-c4cccc(C(F)(F)F)c4)ccc3S(=O)(=O)CC2)cc1)C1CCOCC1 | 236 to 238 °C
O=c1[nH]c(=O)n(C2CC(Cl)C(CBr)O2)cc1C=CBr (stereo unspecified) | 149 °C
CSC=CC(C)(C)C(=O)O | 49 to 51 °C
CS(=O)(=O)NCCNc1ccc([N+](=O)[O-])cc1 | 154 °C
CC(=O)Nc1ccc(-c2c[nH]c(=O)c(C)n2)cc1 | > 300 °C
Cc1cc(NC(=O)NN(c2ccccc2)c2cccc(C(=N)N)c2)ccc1N1CCCCC1=O | > 300 °C
O=C1C=CC(O)(c2nc3ccccc3s2)C(Sc2ccccc2)C1 (stereo unspecified) | 66 °C
O=c1c2c(c1=O)Nc1c(cc(Cl)c(Cl)c1Cl)N2 | > 360 °C
CNc1nc(F)c(OC(F)F)c(Cl)n1 | 57 to 61 °C
CC1CN(c2nnc(N3CC(C)OC(C)C3)c3cc(-c4ccccc4)ncc23)CC(C)O1 (stereo unspecified) | 248 to 250 °C
OC(CN1CC=C(c2ccc(Cl)cc2)CC1)c1ccc(Cc2ccc(Cl)cc2)cc1 (stereo unspecified) | 149 to 152 °C
COc1cc(Nc2c(C#N)cnc3cc(-c4ncccc4CN4CCOCC4)ccc23)c(Cl)cc1Cl | 151 to 154 °C
CCOc1ccc(C2CCC3c4ccc(OCC)c(F)c4OC3C2)c(F)c1F (stereo unspecified) | 126 °C
CC(=O)c1c(CBr)n(S(=O)(=O)c2ccccc2)c2ccc(Cl)cc12 | 155 °C
N#CC12CCN(CC1)CC2Cc1ccccc1 (stereo unspecified) | 82.5 to 84 °C
Cc1cc2c(cc1C)C(=O)c1c(N)cccc1C2=O | 222 °C
COc1ccc(CC(C(N)=O)S(C)(=O)=O)cc1C(=O)NCc1ccc(C(F)(F)F)cc1 (stereo unspecified) | 219 to 220 °C
CCOC(=O)C1=C(COCC(C)(O)Cc2ccccn2)NC(C)=C(C(=O)OC)C1c1cccc(Cl)c1Cl (stereo unspecified) | 163 to 164 °C
COc1cccc(C23CN(C)CC2CC32OCC(C)(C)CO2)c1 (stereo unspecified) | 132 to 135 °C
N=C(N)Nc1nc(-c2cccc(N)c2)cs1 | 180 to 182 °C
CCCCc1ccc(CCCC(=O)O)cc1 | 56 to 58 °C
COc1ccc2ccc3c4cc5c(cc4nnc3c2c1)OCO5 | 259 to 261 °C

Compound | melting point
COc1cc(N(C)C)ccc1CN1C(=O)C(C)(c2ccccc2Cl)c2cc(Cl)ccc21 (stereo unspecified) | 135 °C
Cc1cc(C)cc(Nc2nccc(-c3nc4ccccc4s3)n2)c1 | 217 to 219 °C
Cc1nc(COc2cc(N)c(Cl)cc2C(=O)O)cs1 | 188 to 189 °C
Nc1ccc(CC2CCN(S(=O)(=O)c3ccccc3)CC2)cc1 | 158 °C
Cc1ccc(-c2ccccc2)c(NC(=N)N2CCOCC2)c1 | 154 to 155 °C
CNS(=O)(=O)c1cc2c(c(C(=O)O)c1)OCCO2 | 208 to 209 °C
CN1NC(Oc2cc(F)ccc2[N+](=O)[O-])=CC1C(F)(F)F (stereo unspecified) | 68 to 70 °C
CC12CCC(O)CC1=CCC1C2CCC2(C)C(c3cccnc3)=CCC12 (stereo unspecified) | 214 to 218 °C
CCOC(=O)C(=Cc1cccc(OC)c1OC)N=[N+]=[N-] | < 50 °C
CCc1nc2c(C)cc(C)nc2n1C1CCc2cc(-c3ccccc3-c3nnn[nH]3)ccc21 (stereo unspecified) | 181 °C
CC(=O)c1ccc(Oc2ccc(-c3scc(-c4ccccc4Cl)c3CC(=O)N=C(N)N)cc2)cc1 | 117 to 118 °C
CCn1cc(C(=O)O)c(=O)c2cc(F)c(-c3ccnc(CN)n3)c(F)c21 | 285 to 289 °C
COC(=O)CCc1cc(C(CC(C)C)NC(=O)Cc2ccc(NC(=O)Nc3ccccc3C)cc2)no1 (stereo unspecified) | 153 to 154 °C
CN1C(=O)N(c2ccccc2)S[N+]1(C)[O-] (stereo unspecified) | 77 to 79 °C
Brc1cncc2nc(SCc3ccccc3)nn12 | 94 to 95 °C
N#CC(CC(=O)c1ccc(C(F)(F)F)cc1)C1CC1 (stereo unspecified) | 91 to 93 °C
C#CCN(C(=O)c1cnc(Cl)nc1C(F)(F)F)S(=O)(=O)c1cccc(Cl)c1 | 106 to 107 °C
CC(C)OC(=O)c1cc(-n2c(=O)c(F)c(CF)n(C)c2=O)c(F)cc1Cl | 85 to 89 °C
Cc1ccc(CNc2cccc(C(=O)O)c2C(=O)O)o1 | 305 to 307 °C
O=C(Nc1ccccc1)C1=Cc2ccccc2S1(=O)=O | > 220 °C
On1nnc2ccc(C3CCCc4cncn43)cc21 (stereo unspecified) | 279 °C
O=C(O)c1nc2cc(O)c(O)cc2nc1C(=O)O | > 300 °C
O=C(c1ccc(Cl)cc1)N1CCc2nnc(Cl)cc2C1 | 170 to 172 °C
O=C(O)c1ccc(CCOc2c(F)ccc3nc(C(=O)NCc4cccc(OCCOc5nc[nH]n5)c4)[nH]c(=O)c23)cc1 | 122 to 124 °C
Nc1nc2ccccc2c2c1nc1n2C(CO)COC1 (stereo unspecified) | 239 to 240 °C
COc1ccc(CSc2cccc(C(=O)Nc3ccc(C#N)cn3)c2)cc1 | 163 to 164 °C

Compound | melting point
O=C1NC(=S)SC1=Cc1ccc(OCc2ccccc2-c2ccccc2C(=O)O)cc1 | > 225 °C
O=c1[nH]ncc2cc(CCc3ccccc3)ccc12 | 190 to 193 °C
N#Cc1cc([N+](=O)[O-])ccc1Oc1ccc(Oc2ccccc2)cc1 | 150 to 152 °C
O=Cc1ccc(-c2noc(-c3ccc(C(F)(F)F)cc3)n2)cc1 | 145 to 146 °C
O=CCN1C(=O)c2ccccc2C1=O | 114 °C
COC(OC)c1cc(C)nc(N)n1 | 69 to 71 °C
CC(CO)N1c2ccccc2Sc2ccc(C(N)=S)cc21 (racemic) | 152 °C
COc1ccc(OCc2ccccc2)c(C(=O)OCc2ccccc2)c1 | 93 to 94.5 °C
COc1cc(C=O)cc2c1OCCC2 | 81 °C
CC(=O)Nc1ccc(-c2cc(-c3nc4ccccc4c(=O)n3-c3ccccc3)sc2N2CCOCC2)cc1 | > 275 °C
CCCCc1nc2ccn(Cc3cccc(C(=N)N)c3)c(=O)c2n1Cc1ccc2ccc(C(=N)N)cc2c1 | 190 to 191 °C
O=c1cc(-c2ccccc2)oc2ccc(OCCCCCCCN3CCC(O)CC3)cc12 | 135 to 136 °C
CS(=O)(=O)Nc1ccc(NC(=O)CCl)cc1 | 174 to 177 °C
O=C1c2cc(Cl)ccc2N(N2CCCCC2)C2=NCCN12 | 192 to 193 °C
CC(=O)Nc1ccc2c(c1)C(=O)C(Br)CCO2 (stereo unspecified) | 157 to 160 °C
NCCCCc1cccc(C2=NNC(=O)CC2)c1 | 128 to 130 °C
CSc1ccc([C@@H](CC2CCCC2)C(=O)O)cc1Cl | 117 to 119 °C
COCCc1nc2c(N)nc3ccccc3c2n1CCCCCC(=O)N1CCOCC1 | 131 to 132 °C
CCN1C(=O)Cc2cc3c(cc21)C(=O)CO3 | 181 to 184 °C
COC(=O)C(C(C)=O)C(c1cccc([N+](=O)[O-])c1)C(C(C)=O)C(=O)OC (stereo unspecified) | 94 to 96 °C
COc1cc(-c2ccc(C)cc2)c(C(C)=NOCc2ccc([N+](=O)[O-])cc2)cc1O | 106 to 109 °C
CC(=O)Nc1ccc(OC(F)F)c(OC(F)F)c1 | 65 to 67 °C
Cc1cc(Nc2cc(-c3ccccc3)nc3ccccc23)[nH]n1 | 242 to 244 °C
